Laboratory results: patent US8217069B2, “Nitrogenated fused ring derivative, pharmaceutical composition comprising the same, and use of the same for medical purposes” (Kissei Pharmaceutical Co., Ltd., priority 2007, dated 2012)

Biological target: T1, human GnRH receptor1 (GnRHR1) (Homo sapiens, UniProt P30968)
T1 construct: expressed in transfected cells
T1 sequence (P30968 1-328): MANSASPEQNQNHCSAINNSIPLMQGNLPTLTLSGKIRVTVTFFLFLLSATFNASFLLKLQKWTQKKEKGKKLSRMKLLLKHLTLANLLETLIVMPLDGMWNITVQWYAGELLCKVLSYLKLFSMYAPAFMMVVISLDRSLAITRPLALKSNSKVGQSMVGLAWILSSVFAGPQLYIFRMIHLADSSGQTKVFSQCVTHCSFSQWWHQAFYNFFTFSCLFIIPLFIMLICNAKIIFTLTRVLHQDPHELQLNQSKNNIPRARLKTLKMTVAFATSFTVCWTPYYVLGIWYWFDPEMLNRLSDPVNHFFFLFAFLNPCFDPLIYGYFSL
Assay: Assay of inhibitory effect for the change of calcium levels in GnRH-stimulated cells (hGnRHR1#1 HEK293 cells, FLIPR Calcium Assay Kit)
Type: cell-based
Conditions: drug concentration at which 50% GnRH-stimulated intracellular calcium flux was inhibited, 10 nM GnRH
Source text: 1) Cloning and Construction of the Vector Expressing Human GnRH Receptor1 (GnRHR1)
Using cDNA derived from human pituitary (BECTON DICKINSON) as a template, the DNA fragment coding 45 to 1115 bp of human GnRHR1 (Accession No. L03380), which was reported by Kakar et al., was amplified by PCR method and inserted into the multi-cloning site of pcDNA3.1(+) (Invitrogen). The DNA sequence inserted was perfectly matched to the previously reported sequence.
2) Establishment of Cell Line Stably Expressing Human GnRH Receptor1 HEK293 Cells
The expression vector of human GnRHR1 gene, was digested by XhoI into a linear DNA. The linear DNA was transfected into HEK293 cells by means of lipofection (Lipofectamine-2000: Invitrogen). Neomycin resistant cell lines were selected by culture in the medium containing G418 (Invitrogen) at 1 mg/mL, and then the change of calcium levels in GnRH-stimulated cells was measured by the method described below.
3) Assay of Inhibitory Effect for the Change of Calcium Levels in GnRH-Stimulated Cells
Antagonizing effect of compounds for human GnRHR1 was evaluated by depression of calcium levels in GnRH-stimulated cells. hGnRHR1#1 cells were seeded into a 96-well culture plate at a density of 1.5×10^5 cells/well and cultured for a day. After removing the culture medium, cells were washed with 200 μL per well of the washing buffer (Hanks' Balanced Salt Solutions, 20 mM N-2-hydroxyethylpiperazine-N′-2-ethanesulfonic acid, 1.3 mM calcium chloride, 0.5 mM magnesium chloride, 0.4 mM magnesium sulfate). One hundred μL of the Ca^2+ sensitive dye solution (FLIPR Calcium Assay Kit, Molecular Devices) was added to the well, and the cells were incubated for 1 hour at 37° C. in 5% CO2 incubator. Then, intracellular calcium levels were determined under the following condition by using FLEX STATION (Molecular Devices). In the equipment, which was warmed to 37° C., 50 μL of test compound diluted with the measurement buffer (the washing buffer with 0.1% Albumin bovine serum) was added to the well. After 1 minute, 50 μL of 10 nM GnRH was added to the well. The drug concentration, at which 50% GnRH-stimulated intracellular calcium flux was inhibited (IC50 value), was calculated using logit plot (Table 106).

IC50 | Structure (SMILES)
24 nM | COc1cccc(F)c1C(C)(C)S(=O)(=O)c1ccc(Cl)c(-n2c(=O)[nH]c3c(C)cc(C(=O)O)nc32)c1 [Example 128]
32 nM | COc1ccc(F)c(F)c1COc1cc(-n2c(=O)[nH]c3c(OC)nc(CF)nc32)c(Cl)cc1OCC(=O)NCCO [Example 341]
99 nM | Cc1cc(/C(N)=N/O)nc2c1[nH]c(=O)n2-c1cc(S(=O)(=O)N2CCCCc3ccccc32)ccc1Cl [Example 160, 3-[2-Chloro-5-(2,3,4,5-tetrahydro-1H-1-benzoazepin-1-ylsulfonyl)phenyl]-5-hydroxycarbamimidoyl-7-methyl-1,3-dihydro-2H-imidazo[4,5-b]pyridin-2-one]
36 nM | COc1cc(Cl)c(-n2c(=O)[nH]c3c(C)nc(N)nc32)cc1OCc1c(OC)ccc(F)c1F [Example 381, 2-Amino-9-[2-chloro-5-(2,3-difluoro-6-methoxybenzyloxy)-4-methoxyphenyl]-6-methyl-7,9-dihydro-8H-purin-8-one]
32 nM | COc1ccc(F)c(F)c1CN(C(C)=O)c1ccc(Cl)c(-n2c(=O)[nH]c3c(C)cc(C(=O)O)nc32)c1 [Example 81]
15 nM | COc1cccc(F)c1COc1cc(-n2c(=O)[nH]c3c(OC)nc(CO)nc32)c(Cl)cc1OCC(=O)O [Example 274]
20 nM | Cc1cc(C(=O)O)nc2c1[nH]c(=O)n2-c1cc(S(=O)(=O)N2CCCCc3ccccc32)ccc1F [Example 93]
193 nM | CC(C)(c1ccccc1)S(=O)(=O)c1ccc(Cl)c(-n2c(=O)[nH]c3ccc(C(=O)O)nc32)c1 [Example 35]
46 nM | COc1ccccc1N(C)S(=O)(=O)c1ccc(Cl)c(-n2c(=O)[nH]c3c(OC)ncnc32)c1 [Example 199]
27 nM | COc1cc(Cl)c(-n2c(=O)[nH]c3c(OC)ncnc32)cc1OCc1c(OC)ccc(F)c1F [Example 39]
62 nM | COc1ncnc2c1[nH]c(=O)n2-c1cc(OCc2c(OCCNC(C)=O)ccc(F)c2F)ccc1Cl [Example 262]
38 nM | CNC(=O)COc1cc(Cl)c(-n2c(=O)[nH]c3c(OC)nc(C(C)=O)nc32)cc1OCc1c(OC)ccc(F)c1F [Example 346]
17 nM | COc1ccc(F)c(F)c1COc1cc(-n2c(=O)[nH]c3c(OC)nc(C(F)F)nc32)c(Cl)cc1OCC(=O)N(C)C [Example 345]
54 nM | COc1cccc(F)c1COc1cc(-n2c(=O)[nH]c3c(OC)nc(CF)nc32)c(Cl)cc1OCCO [Example 251]
36 nM | COc1cc(F)c(-n2c(=O)[nH]c3c(C)cc(C(=O)O)nc32)cc1SC(C)(C)c1ccccc1Cl [Example 109]
19 nM | CCNC(=O)COc1cc(Cl)c(-n2c(=O)[nH]c3c(C(C)=O)nc(C)nc32)cc1OCc1c(F)cccc1OC [Example 452]
32 nM | Cc1cc(CO)nc2c1[nH]c(=O)n2-c1cc(S(=O)(=O)N2CCCCc3ccccc32)ccc1Cl [Example 152, 3-[2-Chloro-5-(2,3,4,5-tetrahydro-1H-1-benzoazepin-1-ylsulfonyl)phenyl]-5-hydroxymethyl-7-methyl-1,3-dihydro-2H-imidazo[4,5-b]pyridin-2-one]
23 nM | COc1cc(Cl)c(-n2c(=O)[nH]c3c(OC)nc(CCO)nc32)cc1OCc1c(F)cccc1OC [Example 314, 9-[2-Chloro-5-(2-fluoro-6-methoxybenzyloxy)-4-methoxyphenyl]-2-(2-hydroxyethyl)-6-methoxy-7,9-dihydro-8H-purin-8-one]
